Assay results from patent publication US8222279B2, “Small molecule insulin mimetics absent quinones” (Duke University, priority 2006, dated 2012).

Columns and labels:
human insulin receptor = molecular target: T1, human insulin receptor (Homo sapiens, UniProt P06213); assay: Insulin receptor autophosphorylation (phosphotyrosines 1162/1163) immunoblot in CHO-IR cells; assay type: cell-based; settings: increasing concentrations, 10 min at 37° C., immunoblot not shown
T1 construct: expressed in transfected cells; host or cells: CHO-IR (Chinese hamster ovary cells)
T1 sequence (P06213 763-1382 limits assumed): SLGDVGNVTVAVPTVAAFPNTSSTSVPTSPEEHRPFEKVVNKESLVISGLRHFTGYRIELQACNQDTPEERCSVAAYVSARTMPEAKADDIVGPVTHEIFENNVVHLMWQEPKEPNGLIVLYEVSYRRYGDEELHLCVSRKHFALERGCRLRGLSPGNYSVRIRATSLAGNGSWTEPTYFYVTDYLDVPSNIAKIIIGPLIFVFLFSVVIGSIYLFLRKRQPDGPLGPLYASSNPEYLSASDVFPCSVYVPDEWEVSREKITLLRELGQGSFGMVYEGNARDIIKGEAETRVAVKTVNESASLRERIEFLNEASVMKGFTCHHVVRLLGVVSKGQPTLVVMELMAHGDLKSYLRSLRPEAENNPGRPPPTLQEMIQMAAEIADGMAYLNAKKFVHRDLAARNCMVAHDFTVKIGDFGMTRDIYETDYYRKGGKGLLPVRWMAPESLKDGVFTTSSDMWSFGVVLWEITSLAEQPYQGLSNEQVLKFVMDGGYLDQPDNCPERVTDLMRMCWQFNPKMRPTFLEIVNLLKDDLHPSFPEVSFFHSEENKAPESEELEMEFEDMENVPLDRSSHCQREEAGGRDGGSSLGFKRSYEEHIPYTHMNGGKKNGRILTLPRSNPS
T1 sequence (P06213 28-758 partner limits assumed): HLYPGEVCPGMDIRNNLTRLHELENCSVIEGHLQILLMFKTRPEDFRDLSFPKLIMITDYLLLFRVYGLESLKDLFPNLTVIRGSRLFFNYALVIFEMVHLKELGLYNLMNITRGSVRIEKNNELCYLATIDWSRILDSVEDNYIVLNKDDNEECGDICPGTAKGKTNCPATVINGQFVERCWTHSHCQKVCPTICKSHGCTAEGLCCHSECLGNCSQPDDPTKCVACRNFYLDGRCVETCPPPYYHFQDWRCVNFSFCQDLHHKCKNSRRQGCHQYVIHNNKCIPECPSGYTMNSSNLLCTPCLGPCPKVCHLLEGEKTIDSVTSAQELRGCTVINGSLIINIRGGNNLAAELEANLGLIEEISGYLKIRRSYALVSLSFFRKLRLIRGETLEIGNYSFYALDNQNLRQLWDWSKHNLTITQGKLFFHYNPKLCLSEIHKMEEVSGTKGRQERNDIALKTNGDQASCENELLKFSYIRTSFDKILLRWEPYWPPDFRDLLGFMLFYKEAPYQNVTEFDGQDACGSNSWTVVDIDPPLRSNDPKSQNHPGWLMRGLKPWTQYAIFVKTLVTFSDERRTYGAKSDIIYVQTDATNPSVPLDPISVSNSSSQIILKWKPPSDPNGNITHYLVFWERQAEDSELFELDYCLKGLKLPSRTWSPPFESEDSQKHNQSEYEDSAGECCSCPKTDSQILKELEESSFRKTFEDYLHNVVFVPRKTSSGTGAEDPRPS
Source text: These compounds were examined in a cell-based assay for their ability to mimic the action of insulin. In this case, Chinese hamster ovary (CHO) cells stably transfected with a gene for human insulin receptor and expressing it on their surface were used. CHO-IR cells were stimulated with increasing concentrations of insulin, LDIV122 (same as 198), LDIV148 (same as 196), ZL-196 (an insulin mimic that includes a quinone), and LDIV99 (same as 194). Whole-cell lysates were immunoblotted with antibodies to phosphotyrosines 1162 and 1163 that lie on the activation loop in the beta-subunit of the insulin receptor.
Materials. Antibodies to tyrosine phosphorylated IR(Tyr1162/Tyr1163) are from BioSource (Camarillo, Calif.).
CHO-IR cells (Chinese hamster ovary cells overexpressing the β isoform insulin receptor) were cultured in Ham's F12 supplemented with 10% FCS, 2 mM glutamax and gentamicin at 37° C. in a 5% CO2 atmosphere. Cells were serum starved for 72 h in 12-well plates, then stimulated with increasing concentrations of insulin or compounds in KRP-Hepes for 10 min at 37° C. The cells are washed with ice-cold phosphate-buffered saline and solubilized in 2×SDS-sample buffer (50 mM Tris-HCl, pH 7.4, 5% glycerol, 2% SDS, 0.005% bromophenol blue) containing 2 mM sodium orthovanadate and 200 mM sodium fluoride. […]

[1] = system: differentiated PC12 neurons; assay: Protection of differentiated PC12 neurons from apoptotic cell death induced by NGF withdrawal; assay type: cell-based; settings: 100 ng/ml NGF; 48 h; control cells 64±1%
Description: A library of asterriquinones was screened using a 96-well ELISA assay that detects phosphorylated TrkA, the NGF receptor. We identified many compounds from this library that activated TrkA in CHO cells. The library was also screened for dose-dependent cytotoxicity in these cells. From these assays, we selected two compounds 1H5 and 5E5 for further study based on NGF agonist activity and low toxicity. […] 1H5 at 30 μM has 49±4% the effect of 100 ng/ml NGF. […] Despite this, 1H5 can protect differentiated PC12 neurons from apoptotic cell death induced by NGF withdrawal for 48 h. Cell death is 64±1% in control PC12 cells, 52±3% in cell treated with 30 μM 1H5, and 18±6% in cells treated with 100 ng/ml NGF. […] 5E5 at 30 μM has 212±11% the effect of 100 ng/ml NGF on CHO-Trk cells. It is non-toxic at concentrations up to 10 μM. […] 5E5 also causes phosphorylation of FRS2/SNT, a differentiation-specific target of NGF in neurons and PC12 cells (2.7-fold v.s. NGF).

Row | Molecule | Autophosphorylation of the insulin receptor (human insulin receptor) | Cell death [1] [%]
1 | CC(C)=CCc1cccc2c(-c3oc(CO)cc(=O)c3O)c[nH]c12 [LDIV99, 3-Hydroxy-6-hydroxymethyl-2-[7-(3-methyl-but-2-enyl)-1H-indol-3-yl]-pyran-4-one] | dose-dependent autophosphorylation | –
2 | CC(C)=CCc1cccc2c(-c3c(O)c(=O)cc(CO)n3C)c[nH]c12 [LDIV148, 3-Hydroxy-6-hydroxymethyl-1-methyl-2-[7-(3-methyl-but-2-enyl)-1H-indol-3-yl]-pyridin-4-one] | dose-dependent autophosphorylation | –
3 | NGF: nerve growth factor, ligand of TrkA, used as reference at 100 ng/ml | – | 18±6
